Like-named read-outs stand apart in the source and are kept apart here.
Assays:
VMAT2 = target: T1, VMAT2 (Rattus norvegicus, UniProt Q01827); assay: [3H]Dopamine ([3H]DA) uptake assay, vesicular preparation; format: biochemical
T1 construct: from tissue; host or cells: rat striatum, isolated synaptic vesicles

hERG channel = target: T2, hERG channel (Homo sapiens, UniProt Q12809); assay: [3H]Dofetilide binding assay, HEK-293 cell membrane preparation; conditions: hERG Binding: Mean Ki (nM)
T2 construct: purchased; host or cells: HEK-293 cells stably expressing hERG (membranes)
T2 sequence (Q12809 whole entry): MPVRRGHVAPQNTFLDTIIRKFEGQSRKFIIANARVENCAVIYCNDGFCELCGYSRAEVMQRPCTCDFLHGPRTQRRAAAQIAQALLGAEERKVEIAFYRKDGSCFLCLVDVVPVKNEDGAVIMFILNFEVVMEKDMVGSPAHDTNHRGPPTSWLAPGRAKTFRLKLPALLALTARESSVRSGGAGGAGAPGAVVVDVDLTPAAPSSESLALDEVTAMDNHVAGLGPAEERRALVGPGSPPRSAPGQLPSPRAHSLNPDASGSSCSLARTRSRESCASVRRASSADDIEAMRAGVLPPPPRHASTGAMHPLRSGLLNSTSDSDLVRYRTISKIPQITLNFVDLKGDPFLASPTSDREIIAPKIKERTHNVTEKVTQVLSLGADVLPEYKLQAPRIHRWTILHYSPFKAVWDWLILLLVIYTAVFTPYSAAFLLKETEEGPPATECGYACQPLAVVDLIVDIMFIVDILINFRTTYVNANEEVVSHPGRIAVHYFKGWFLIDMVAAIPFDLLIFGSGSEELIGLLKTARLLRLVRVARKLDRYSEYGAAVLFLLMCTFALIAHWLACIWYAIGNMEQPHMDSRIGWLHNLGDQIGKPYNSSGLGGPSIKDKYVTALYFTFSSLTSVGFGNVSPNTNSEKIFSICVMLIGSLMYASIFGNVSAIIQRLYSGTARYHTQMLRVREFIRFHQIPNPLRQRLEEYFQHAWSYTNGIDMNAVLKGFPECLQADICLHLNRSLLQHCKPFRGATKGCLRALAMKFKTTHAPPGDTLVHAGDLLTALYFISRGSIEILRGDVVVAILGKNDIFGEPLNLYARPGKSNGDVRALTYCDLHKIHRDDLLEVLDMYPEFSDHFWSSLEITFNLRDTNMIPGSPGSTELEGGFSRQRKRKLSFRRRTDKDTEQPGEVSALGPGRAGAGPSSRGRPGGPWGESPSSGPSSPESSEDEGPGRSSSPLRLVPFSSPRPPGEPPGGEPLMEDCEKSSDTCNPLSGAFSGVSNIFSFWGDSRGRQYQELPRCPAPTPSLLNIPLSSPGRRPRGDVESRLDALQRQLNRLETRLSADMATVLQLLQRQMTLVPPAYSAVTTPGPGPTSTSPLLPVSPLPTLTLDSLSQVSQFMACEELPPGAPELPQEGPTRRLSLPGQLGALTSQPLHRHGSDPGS
Experimental: Membranes were suspended in assay buffer (50 mM Tris, 10 mM KCl, 1 mM MgCl2, pH 7.4) prior to the experiment. […] Nonspecific binding was determined in the presence of amitriptyline (1 mM). Samples were incubated for 1 hr. at 24° C., followed by rapid filtration.

[1] = target: dopamine transporter (DAT) (Rattus norvegicus, UniProt P23977); assay: [3H]DA uptake assay, synaptosomal preparation
dopamine transporter (DAT), sequence (P23977 whole entry): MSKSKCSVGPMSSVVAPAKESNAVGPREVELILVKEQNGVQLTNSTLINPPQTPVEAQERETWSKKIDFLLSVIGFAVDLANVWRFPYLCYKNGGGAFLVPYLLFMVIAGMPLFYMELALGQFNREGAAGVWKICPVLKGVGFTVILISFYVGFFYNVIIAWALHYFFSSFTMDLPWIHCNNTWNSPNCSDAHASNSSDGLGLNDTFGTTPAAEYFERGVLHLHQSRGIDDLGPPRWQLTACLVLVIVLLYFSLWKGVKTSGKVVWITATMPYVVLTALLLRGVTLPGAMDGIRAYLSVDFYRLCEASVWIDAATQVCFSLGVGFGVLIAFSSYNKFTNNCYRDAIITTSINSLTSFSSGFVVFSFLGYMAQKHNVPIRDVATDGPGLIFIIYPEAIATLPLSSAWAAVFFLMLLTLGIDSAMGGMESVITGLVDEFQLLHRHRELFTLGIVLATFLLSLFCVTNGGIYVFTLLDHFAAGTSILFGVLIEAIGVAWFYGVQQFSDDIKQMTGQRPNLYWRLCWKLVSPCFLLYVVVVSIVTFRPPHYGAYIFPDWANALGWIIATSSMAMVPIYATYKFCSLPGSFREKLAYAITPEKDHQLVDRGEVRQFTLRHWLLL
Experimental: [^3H]DA and [3H]5-HT uptake into striatal synaptosomes was determined to evaluate compound inhibition of the dopamine transporter (DAT) and the serotonin transporter (SERT), respectively. […] Assays were performed in duplicate in a total volume of 500 μL (for DAT assays) or 250 μL (for SERT assays). Aliquots of the synaptosomal suspension (25 μL for DAT, 50 μL for SERT) were added to tubes containing assay buffer and various concentrations of analog (1 nM-100 μM), and incubated at 34° C. for 5 min. Nonspecific uptake was determined in the presence of nomifensine (10 μM) for DAT assays or fluoxetine (10 μM) for SERT assays. […] Samples were placed on ice, and 50 μL of 0.1 μM [^3H]DA (for DAT assays) or 25 μL of 0.1 μM [^3H]5-HT (for SERT assays) was added to each tube, and incubated for 10 min at 34° C. Reactions were terminated by addition of 3 mL of ice-cold assay buffer and subsequent filtration and radioactivity retained by the filters was determined by liquid scintillation spectrometry (Tri-Carb 2100TR liquid scintillation analyzer; PerkinElmer Life and Analytical Sciences, Boston, MA).

[2] = Microsomal assays, rat liver microsomes; conditions: for CLint scaled at 0.08 µM: female, Sprague-Dawley, rat, pH 7.4; for Microsomal stability assays: Species/Half-life (hr) Rat: rat liver microsomes
Experimental: Each plate holds triplicate samples of two controls (0.4 mM) and up to 14 compounds (0.08 mM) in rat and human liver microsomes. Aliquots of each well of the plate (175 μl of each well) were transferred from the master plate into 5 assay plates. […] NADPH regenerating system solution A (6.05 ml, Fisher Scientific, #NC9255727) was combined with NADPH regenerating system solution B (1.21 ml, Fisher Scientific, #NC9016235) in potassium phosphate buffer (15.8 ml, 0.1 M, pH 7.4, 37° C.). The resulting NADPH solution (43.8 μl) was added to each well of all the 96-well assay plates and mixed with pipette briefly making the final protein and compound concentrations respectively: 0.5 mg/ml, 0.08 μM (0.4 μM for controls). Plates were sealed, and all plates except the 0-hr plate were incubated at 37° C., shaken at a speed of 60 rpm. A single assay plate was tested at each time point: 0.5 hr, 1 hr, 2 hr, and 4 hr. At each time point, 437.5 μL of pre-cooled internal standard was added each well of the plate to quench the reaction. […] 120 μl supernatant was transferred to a 96-well plate, centrifuged again and analyzed by UPLC-MS (Waters Inc., Milford, MA). The compounds and internal standard were detected by selected ion recording (SIR).
The amount of material was measured as a ratio of peak area to the internal standard and graphed. Using the slope from the initial linear portion of this curve, the degradation rate constant is calculated using equation [1]. The rate constant was then used to calculate the compounds half-life in plasma using equation [2].

[3] = [3H]dofetilide binding, HEK-293 membranes, mean of n>=3 unless N given
[4] = [3H]DA uptake, rat vesicular preparation, mean of n>=3 unless N given, read-out: VMAT2 (rat) Inhibition: Mean Ki

T1 sequence (Q01827 whole entry): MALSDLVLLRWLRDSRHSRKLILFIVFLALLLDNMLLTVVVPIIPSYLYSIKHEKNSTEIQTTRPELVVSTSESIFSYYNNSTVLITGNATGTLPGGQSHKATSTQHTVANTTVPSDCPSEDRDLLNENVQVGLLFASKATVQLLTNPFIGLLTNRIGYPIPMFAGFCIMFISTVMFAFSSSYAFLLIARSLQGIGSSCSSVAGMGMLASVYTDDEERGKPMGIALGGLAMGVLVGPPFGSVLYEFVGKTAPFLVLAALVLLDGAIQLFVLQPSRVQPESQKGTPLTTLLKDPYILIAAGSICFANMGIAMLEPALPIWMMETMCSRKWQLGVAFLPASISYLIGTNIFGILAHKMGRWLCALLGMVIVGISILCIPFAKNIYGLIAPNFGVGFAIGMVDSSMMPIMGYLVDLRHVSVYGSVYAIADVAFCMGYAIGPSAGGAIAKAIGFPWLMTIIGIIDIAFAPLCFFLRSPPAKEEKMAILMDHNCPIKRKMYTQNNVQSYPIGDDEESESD

| SMILES | Ki (VMAT2) [nM] | Ki (hERG channel; [3]) [nM] | also measured |
| --- | --- | --- | --- |
| CC(Cc1ccc(F)c(F)c1)NCCCc1ccc(Cl)c(C(F)(F)F)c1 (stereo not shown) [Compound 273] | 538 | 1220 |  |
| CC(Cc1ccc(F)c(F)c1)NCCCc1cccc(N(C)C)c1 (stereo not shown) [Compound 266] | 171 | 2460 |  |
| CC(Cc1ccc(F)c(F)c1)NCCCc1ccc2c(c1)C(=O)OC2 (stereo not shown) [Compound 253] | 268 |  |  |
| CC(Cc1ccc(F)c(F)c1)NCCCc1ccc(-c2ccnn2C)cc1 (stereo not shown) [Compound 244] | 118 | 1030 |  |
| CC(Cc1c[nH]c2ccccc12)NCCCc1ccc(F)cc1 (stereo not shown) [Compound 246] | 66 | 731 |  |
| CC(Cc1ccc(F)c(F)c1)NCCCc1ccccc1Cl (stereo not shown) [Compound 268] | 28 | 233 |  |
| CC(Cc1ccccc1)N(CCCc1ccc(O)cc1)C(=O)OC(C)(C)C (stereo not shown) [Compound 288] | > 100000 |  |  |
| CC(Cc1ccc(F)c(F)c1)NCCCc1ccc(C(C)(C)C)cc1 (stereo not shown) [Compound 264] | 209 | 2190 |  |
| CC(Cc1ccc(F)c(F)c1)NCCCc1ccc(Cl)c(Cl)c1 (stereo not shown) [Compound 272] | 57 | 462 |  |
| CC(Cc1ccc(F)c(F)c1)NCCCc1ccc2c(c1)[nH]c(=O)n2C (stereo not shown) [Compound 254] | 187 |  |  |
| O=C(O)C(Cc1ccc(F)cc1)NCCCc1ccc(Br)cc1 (stereo not shown) [Compound 286] | 3130 |  |  |
| FCC(Cc1ccccc1)NCCCc1ccc(F)cc1 (stereo not shown) [Compound 101] |  |  | Ki (VMAT2; [4]): 17 nM |
| CC(Cc1ccc(F)cc1)NCCCc1ccccn1 (stereo not shown) [Compound 279] | 200 | 2400 |  |
| CC(Cc1ccc(F)c(F)c1)NCCCc1ccccc1-c1cccnc1 (stereo not shown) [Compound 282] | 88 | 364 |  |
| CC(Cc1cccc(N)c1)NCCCc1ccc(F)cc1 (stereo not shown) [Compound 310] | 5 |  | Ki [1]: 2230 nM; CLint scaled at 0.08 µM [2]: 74 mL/min/kg; Ki (hERG channel; Table 4, mean, minimally n = 3): 2730 nM |
| CC(Cc1ccc(NC(N)=O)cc1)NCCCc1ccc(F)cc1 (stereo not shown) [Compound 302] | 34 |  | Ki [1]: 3130 nM; CLint scaled at 0.08 µM [2]: 30 mL/min/kg; Ki (hERG channel; Table 4, mean, minimally n = 3): 7110 nM |
| CC(Cc1ccc(F)cc1)NCCCc1cccc(N)c1 (stereo not shown) [Compound 241] | 106 | 6390 |  |
| CC(Cc1ccc(F)c(F)c1)NCCCc1cccc(-c2cccnc2)c1 (stereo not shown) [Compound 283] | 41 | 182 |  |
| CC(Cc1ccc(F)c(F)c1)NCCCc1ccc2ncoc2c1 (stereo not shown) [Compound 256] | 50 | 4880 |  |
| CC(Cc1ccc(F)cc1)NCCCc1cccnc1 (stereo not shown) [Compound 278] | 98 | 3980 |  |
| CC(Cc1ccc(F)c(F)c1)NCCCc1cccc(-c2ccnn2C)c1 (stereo not shown) [Compound 281] | 51 | 592 |  |

| SMILES | Ki (VMAT2) [nM] | Ki (hERG channel; [3]) [nM] | also measured |
| --- | --- | --- | --- |
| CC(Cc1ccc(F)c(F)c1)NCCCc1cccc(S(N)(=O)=O)c1 (stereo not shown) [Compound 236] | 99 | 2010 |  |
| CC(Cc1ccc(F)cc1)NCCCc1ccc2[nH]ccc2c1 (stereo not shown) [Compound 56] |  | 1260 | Microsomal stability assays: Species/Half-life (hr) Rat [2]: 0.1 h |
| CC(Cc1ccc([N+](=O)[O-])cc1)NCCCc1ccc(Br)cc1 (stereo not shown) [Compound 121] |  |  | Microsomal stability assays: Species/Half-life (hr) Rat [2]: 0.1 h |
| CC(Cc1ccc(F)c(F)c1)NCCCc1ccc2nccnc2c1 (stereo not shown) [Compound 232] | 52 | 3300 | Ki [1]: 3580 nM; CLint scaled at 0.08 µM [2]: 159 mL/min/kg; Ki (hERG channel; Table 4, mean, minimally n = 3): 2590 nM |
| CC(Cc1ccc(F)c(F)c1)NCCCc1cccc(Cl)c1 (stereo not shown) [Compound 267] | 19 | 1000 |  |
| CC(Cc1ccccc1)ONCCc1ccccc1 (racemic) [Compound 295] | 41300 |  |  |
| CC(Cc1ccc(F)c(F)c1)NCCCc1ccccc1N (stereo not shown) [Compound 238] | 220 | 3250 |  |
| CC(Cc1ccccc1)N(CCCc1ccc(I)cc1)C(=O)OCc1ccccc1 (stereo not shown) [Compound 290] |  |  | Ki (VMAT2; [4]): 4800 nM |
| CC(Cc1c[nH]c2ccccc12)NCCCc1ccc(F)cc1 (stereo not shown) [Compound 277] |  | 732 | Ki (VMAT2; read-out: VMAT2 (rat) Inhibition: Mean Ki, [3H]DA uptake, rat vesicular preparation, mean of n>=3 unless N given): 66 nM |
| CC(Cc1ccc(F)c(F)c1)NCCCc1cc(Cl)cc(Cl)c1 (stereo not shown) [Compound 270] | 38 | 1500 |  |
| CC(Cc1ccc(F)c(F)c1)NCCCc1ccc(NS(C)(=O)=O)cc1 (stereo not shown) [Compound 274] | 45 | 220 |  |
| CC(C)C(Cc1ccc(F)cc1)NCCCc1ccccc1 (stereo not shown) [Compound 136] | 460 |  |  |
| CSc1ccc(CCCNC(C)Cc2ccc(F)c(F)c2)cc1 (stereo not shown) [Compound 261] | 32 | 316 |  |
| CC(Cc1ccc(F)cc1)NCCCc1ccc([N+](=O)[O-])c(C(F)(F)F)c1 (stereo not shown) [Compound 251] | 55 | 535 |  |
| CC(Cc1ccc(F)c(F)c1)NCCCc1cccc(N)c1 (stereo not shown) [Compound 265] | 202 | 5560 |  |
| CC(Cc1ccccc1)N(CCCc1ccc(N)cc1)C(=O)OCc1ccccc1 (stereo not shown) [Compound 291] |  |  | Ki (VMAT2; [4]): 3100 nM |
| CC(Cc1ccc(F)c(F)c1)NCCCc1cccc2ncoc12 (stereo not shown) [Compound 255] | 54 | 3370 |  |
| CC(Cc1ccc(F)c(F)c1)NCCCc1cccc(C(F)(F)F)c1 (stereo not shown) [Compound 250] | 39 | 4100 |  |
| CC(Cc1ccc(F)c(F)c1)NCCCc1ccc(C(=O)O)cc1 (stereo not shown) [Compound 257] | 6480 | > 34700 |  |
| CC(Cc1ccc(F)cc1)NCCCc1ccccc1 (stereo not shown) [Compound 126] |  |  | Microsomal stability assays: Species/Half-life (hr) Rat [2]: 0.1 h |
| CC(Cc1ccc(F)cc1)NCCCc1ccc(Cl)c(N)c1 (stereo not shown) [Compound 242] | 38 | 1440 |  |

| SMILES | Ki (VMAT2) [nM] | Ki (hERG channel; [3]) [nM] | also measured |
| --- | --- | --- | --- |
| CC(Cc1ccc(F)c(F)c1)NCCCc1ccc2cn[nH]c2c1 (stereo not shown) [Compound 233] | 33 | 483 |  |
| CC(Cc1ccc(F)cc1)NCCCc1c[nH]c2ccccc12 (stereo not shown) [Compound 91] |  |  | Microsomal stability assays: Species/Half-life (hr) Rat [2]: 0.1 h |
| CC(Cc1ccc(Br)cc1)NCCCc1ccc(N)cc1 (stereo not shown) [Compound 240] | 48 | 1130 |  |
| CC(Cc1ccc(F)c(F)c1)NCCCc1ccnc(C(F)(F)F)c1 (stereo not shown) [Compound 247] | 349 |  |  |
| NC(Cc1cn(Cc2ccccc2)cn1)C(=O)OCC(Cc1ccc(F)cc1)NCCCc1ccc(Br)cc1 (stereo not shown) [Compound 287] | 533 |  |  |
| CC(=O)Nc1ccc(CCCNC(C)Cc2ccc(Br)cc2)cc1 (stereo not shown) [Compound 276] | 24 | 3430 |  |
| CC(Cc1ccc(NC=O)cc1)NCCCc1ccc(F)cc1 (stereo not shown) [Compound 88] | 12 |  |  |
| CC(Cc1ccccc1)N(CCCc1ccc([N+](=O)[O-])cc1)C(=O)OCc1ccccc1 (stereo not shown) [Compound 289] | 2970 |  |  |
| CC(Cc1ccc(F)c(F)c1)NCCCc1ccccc1-c1ccnn1C (stereo not shown) [Compound 245] | 136 | 2240 |  |
| CC(Cc1ccc(F)cc1)NCCCc1ccc(Cl)cc1 (stereo not shown) [Compound 188] |  | 500 |  |
| COc1ccc(CCCNC(C)Cc2ccncc2)cc1 (stereo not shown) [Compound 172] |  |  | Microsomal stability assays: Species/Half-life (hr) Rat [2]: 0.1 h |
| CC(Cc1ccc(F)c(F)c1)NCCCc1ccc(OC(C)C)cc1 (stereo not shown) [Compound 259] | 104 | 818 |  |
| CC(Cc1ccc(F)cc1)NCCCc1ccc(NS(C)(=O)=O)cc1 (stereo not shown) [Compound 275] | 53 | 308 |  |
| CC(C)C(Cc1ccc(F)cc1)NCCCc1ccc(Br)cc1 (stereo not shown) [Compound 140] |  |  | Microsomal stability assays: Species/Half-life (hr) Rat [2]: 0.1 h |
| CC(Cc1ccc(F)c(F)c1)NCCCc1ccc(Cl)cc1Cl (stereo not shown) [Compound 269] | 61 | 279 |  |
| CC(Cc1ccc(F)c(F)c1)NCCCc1ccc2ncsc2c1 (stereo not shown) [Compound 252] | 67 | 1580 |  |
| FCC(Cc1ccccc1)NCCCc1ccccc1 (stereo not shown) [Compound 98] |  |  | Microsomal stability assays: Species/Half-life (hr) Rat [2]: 0.1 h |
| CC(Cc1ccc(F)c(F)c1)NCCCc1cccc(Cl)c1Cl (stereo not shown) [Compound 271] | 42 | 462 |  |
| CC(Cc1ccc(F)cc1)NCCCc1ccc(N(C)C)cc1 (stereo not shown) [Compound 156] |  | 49000 |  |
| C[C@H](Cc1ccccc1)ONCCc1ccccc1 [Compound 296] | 20000 |  |  |

From patent US12637410B2, “Vesicular monoamine transporter-2 ligands and their use in the treatment of psychostimulant abuse” (priority 2016, dated 2026)
